# Results as given in the supplement of paper PMC9663587.
# Legend:
# [1] = compound: CCc1cnn2c(NCc3ccc[n+]([O-])c3)cc(N3CCCC[C@H]3CCO)nc12; assay: increase in dead-cell fraction, 72 h; higher = more death;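 also: breast cancer cell lines in 384-well plates, stained with Hoechst plus LIVE/DEAD far red dye and imaged, cells above an LDR intensity threshold counted dead, Hoechst-negative corpses included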
# Flavopiridol [2] = compound: T1, CN1CC[C@H](c2c(O)cc(O)c3c(=O)cc(-c4ccccc4Cl)oc23)[C@H](O)C1 [Flavopiridol]; assay: as above
# LEE011/Ribociclib = compound: CN(C)C(=O)c1cc2cnc(Nc3ccc(N4CCNCC4)cn3)nc2n1C1CCCC1 [LEE011/Ribociclib]; assay: as above
# BSJ-03-123 = compound: CC(=O)c1c(C)c2cnc(Nc3ccc(N4CCN(CCOCCOCCOCCNC(=O)COc5cccc6c5C(=O)N(C5CCC(=O)NC5=O)C6=O)CC4)cn3)nc2n(C2CCCC2)c1=O [BSJ-03-123]; assay: as above
# [3] = compound: CC(=O)c1c(C)c2cnc(Nc3ccc(N4CCNCC4)cn3)nc2n(C2CCCC2)c1=O; assay: as above
# [4] = compound: CCN1CCN(Cc2ccc(Nc3ncc(F)c(-c4cc(F)c5nc(C)n(C(C)C)c5c4)n3)nc2)CC1; assay: as above
# THZ1 [5] = compound: T2, CN(C)C/C=C/C(=O)Nc1ccc(C(=O)Nc2cccc(Nc3ncc(Cl)c(-c4c[nH]c5ccccc45)n3)c2)cc1 [THZ1]; assay: as above
# Neratinib/HKI272 = compound: CCOc1cc2ncc(C#N)c(Nc3ccc(OCc4ccccn4)c(Cl)c3)c2cc1NC(=O)/C=C/CN(C)C [Neratinib/HKI272]; assay: as above
# Flavopiridol [6] = compound: T1, Flavopiridol; assay: GR value, 72 h; higher = faster growth (1 = untreated, <0 = killing);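 also: breast cancer and non-malignant breast epithelial lines, nine half-log doses, viable cells counted by Hoechst and LIVE/DEAD dye imaging versus time-zero plates and DMSO controls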
# [7] = compound: CC(=O)c1c(C)c2cnc(Nc3ccc(N4CCNCC4)cn3)nc2n(C2CCCC2)c1=O; assay: as above
# THZ531 = compound: CN(C)C/C=C/C(=O)Nc1ccc(C(=O)N2CCC[C@@H](Nc3ncc(Cl)c(-c4c[nH]c5ccccc45)n3)C2)cc1 [THZ531]; assay: as above
# THZ1 [8] = compound: T2, THZ1; assay: as above
cell line,measurement,setting,value
MDAMB231,increase in dead-cell fraction,[1]; 0.0001 µM,0.0051
same,increase in dead-cell fraction,[1]; 0.0003162 µM,-0.0006
same,increase in dead-cell fraction,[1]; 0.001 µM,0.0055
same,increase in dead-cell fraction,[1]; 0.003162 µM,-0.0028
same,increase in dead-cell fraction,[1]; 0.01 µM,0.0529
same,increase in dead-cell fraction,[1]; 0.03162 µM,0.459
same,increase in dead-cell fraction,[1]; 0.1 µM,0.573
same,increase in dead-cell fraction,[1]; 0.3162 µM,0.582
same,increase in dead-cell fraction,[1]; 1 µM,0.618
same,increase in dead-cell fraction,Flavopiridol [2]; 0.0001 µM,-0.0026
same,increase in dead-cell fraction,Flavopiridol [2]; 0.0003162 µM,-0.0012
same,increase in dead-cell fraction,Flavopiridol [2]; 0.001 µM,0.002
same,increase in dead-cell fraction,Flavopiridol [2]; 0.003162 µM,0.0006
same,increase in dead-cell fraction,Flavopiridol [2]; 0.01 µM,-0.0004
same,increase in dead-cell fraction,Flavopiridol [2]; 0.03162 µM,-0.0008
same,increase in dead-cell fraction,Flavopiridol [2]; 0.1 µM,0.0005
same,increase in dead-cell fraction,Flavopiridol [2]; 0.3162 µM,0.0405
same,increase in dead-cell fraction,Flavopiridol [2]; 1 µM,0.485
same,increase in dead-cell fraction,LEE011/Ribociclib; 0.001 µM,-0.0007
same,increase in dead-cell fraction,LEE011/Ribociclib; 0.003162 µM,-0.0028
same,increase in dead-cell fraction,LEE011/Ribociclib; 0.01 µM,0.0009
same,increase in dead-cell fraction,LEE011/Ribociclib; 0.03162 µM,-0.0021
same,increase in dead-cell fraction,LEE011/Ribociclib; 0.1 µM,0.0045
same,increase in dead-cell fraction,LEE011/Ribociclib; 0.3162 µM,0.005
same,increase in dead-cell fraction,LEE011/Ribociclib; 1 µM,0.0045
same,increase in dead-cell fraction,LEE011/Ribociclib; 3.162 µM,0.0025
same,increase in dead-cell fraction,LEE011/Ribociclib; 10 µM,0.014
same,increase in dead-cell fraction,BSJ-03-123; 0.001 µM,-0.0008
same,increase in dead-cell fraction,BSJ-03-123; 0.003162 µM,-0.0016
same,increase in dead-cell fraction,BSJ-03-123; 0.01 µM,0.0034
same,increase in dead-cell fraction,BSJ-03-123; 0.03162 µM,0.0017
same,increase in dead-cell fraction,BSJ-03-123; 0.1 µM,0.0035
same,increase in dead-cell fraction,BSJ-03-123; 0.3162 µM,0.0024
same,increase in dead-cell fraction,BSJ-03-123; 1 µM,0.0009
same,increase in dead-cell fraction,BSJ-03-123; 3.162 µM,0.0031
same,increase in dead-cell fraction,BSJ-03-123; 10 µM,0.157
same,increase in dead-cell fraction,[3]; 0.0003162 µM,-0.0007
same,increase in dead-cell fraction,[3]; 0.001 µM,0.0057
same,increase in dead-cell fraction,[3]; 0.003162 µM,-0.0035
same,increase in dead-cell fraction,[3]; 0.01 µM,-0.0069
same,increase in dead-cell fraction,[3]; 0.03162 µM,-0.0054
same,increase in dead-cell fraction,[3]; 0.1 µM,0.0066
same,increase in dead-cell fraction,[3]; 0.3162 µM,0.0151
same,increase in dead-cell fraction,[3]; 1 µM,0.0334
same,increase in dead-cell fraction,[3]; 3.162 µM,0.0399
same,increase in dead-cell fraction,[4]; 0.001 µM,0.0075
same,increase in dead-cell fraction,[4]; 0.003162 µM,0.0028
same,increase in dead-cell fraction,[4]; 0.01 µM,0.0023
same,increase in dead-cell fraction,[4]; 0.03162 µM,0.0037
same,increase in dead-cell fraction,[4]; 0.1 µM,0.0398
same,increase in dead-cell fraction,[4]; 0.3162 µM,0.0474
same,increase in dead-cell fraction,[4]; 1 µM,0.12
same,increase in dead-cell fraction,[4]; 3.162 µM,0.366
same,increase in dead-cell fraction,[4]; 10 µM,0.68
same,increase in dead-cell fraction,THZ1 [5]; 0.0001 µM,-0.0006
same,increase in dead-cell fraction,THZ1 [5]; 0.0003162 µM,0.0015
same,increase in dead-cell fraction,THZ1 [5]; 0.001 µM,0.0027
same,increase in dead-cell fraction,THZ1 [5]; 0.003162 µM,0.0007
same,increase in dead-cell fraction,THZ1 [5]; 0.01 µM,-0.0012
same,increase in dead-cell fraction,THZ1 [5]; 0.03162 µM,0.0033
same,increase in dead-cell fraction,THZ1 [5]; 0.1 µM,0.0231
same,increase in dead-cell fraction,THZ1 [5]; 0.3162 µM,0.0712
same,increase in dead-cell fraction,THZ1 [5]; 1 µM,0.363
same,increase in dead-cell fraction,Neratinib/HKI272; 0.0003162 µM,0.0013
same,increase in dead-cell fraction,Neratinib/HKI272; 0.001 µM,-0.0029
same,increase in dead-cell fraction,Neratinib/HKI272; 0.003162 µM,0.0044
same,increase in dead-cell fraction,Neratinib/HKI272; 0.01 µM,0.0008
same,increase in dead-cell fraction,Neratinib/HKI272; 0.03162 µM,0.0108
same,increase in dead-cell fraction,Neratinib/HKI272; 0.1 µM,0.0067
same,increase in dead-cell fraction,Neratinib/HKI272; 0.3162 µM,0.0175
same,increase in dead-cell fraction,Neratinib/HKI272; 1 µM,0.0509
same,increase in dead-cell fraction,Neratinib/HKI272; 3.162 µM,0.378
same,GR value,Flavopiridol [6]; 0.0001 µM,1.02 GR
same,GR value,Flavopiridol [6]; 0.0003162 µM,1.03 GR
same,GR value,Flavopiridol [6]; 0.001 µM,1 GR
same,GR value,Flavopiridol [6]; 0.003162 µM,0.886 GR
same,GR value,Flavopiridol [6]; 0.01 µM,0.858 GR
same,GR value,Flavopiridol [6]; 0.03162 µM,0.866 GR
same,GR value,Flavopiridol [6]; 0.1 µM,0.656 GR
same,GR value,Flavopiridol [6]; 0.3162 µM,0.152 GR
same,GR value,Flavopiridol [6]; 1 µM,-0.434 GR
same,GR value,[7]; 0.0003162 µM,1.08 GR
same,GR value,[7]; 0.001 µM,1.02 GR
same,GR value,[7]; 0.003162 µM,0.921 GR
same,GR value,[7]; 0.01 µM,0.824 GR
same,GR value,[7]; 0.03162 µM,0.637 GR
same,GR value,[7]; 0.1 µM,0.494 GR
same,GR value,[7]; 0.3162 µM,0.418 GR
same,GR value,[7]; 1 µM,0.288 GR
same,GR value,[7]; 3.162 µM,0.202 GR
same,GR value,THZ531; 0.0001 µM,1.03 GR
same,GR value,THZ531; 0.0003162 µM,0.974 GR
same,GR value,THZ531; 0.001 µM,0.936 GR
same,GR value,THZ531; 0.003162 µM,1.02 GR
same,GR value,THZ531; 0.01 µM,0.939 GR
same,GR value,THZ531; 0.03162 µM,0.975 GR
same,GR value,THZ531; 0.1 µM,0.751 GR
same,GR value,THZ531; 0.3162 µM,0.443 GR
same,GR value,THZ531; 1 µM,-0.275 GR
same,GR value,THZ1 [8]; 0.0001 µM,1.02 GR
same,GR value,THZ1 [8]; 0.0003162 µM,0.992 GR
same,GR value,THZ1 [8]; 0.001 µM,0.993 GR
same,GR value,THZ1 [8]; 0.003162 µM,1.03 GR
same,GR value,THZ1 [8]; 0.01 µM,0.972 GR
same,GR value,THZ1 [8]; 0.03162 µM,0.701 GR
same,GR value,THZ1 [8]; 0.1 µM,0.26 GR
same,GR value,THZ1 [8]; 0.3162 µM,-0.0565 GR
same,GR value,THZ1 [8]; 1 µM,-0.5 GR
